What follows are molecules tested on test plant species (assay: Post-emergent herbicidal activity test (greenhouse, foliar spray, visual growth reduction)). Conditions: post-emergence, 336 h, ALOMY: blackgrass (Alopecurus myosuroides), 140 g ai/ha, 14 days after application, read-out: Visual Growth Reduction (%) 14 Days After Application, ALOMY.
Assay type: in vivo
Experimental: Post-emergent Test: Seeds or nutlets of the desired test plant species were planted in Sun Gro Metro-Mix® 360 planting mixture, which typically has a pH of 6.0 to 6.8 and an organic matter content of about 30 percent, in plastic pots with a surface area of 64 square centimeters. In some aspects, to ensure good germination and healthy plants, a fungicide treatment and/or other chemical or physical treatment was applied. The plants were grown for 7-21 d in a greenhouse with an approximate 15 h photoperiod which was maintained at 23-29° C. during the day and 22-28° C. during the night. Nutrients and water were added on a regular basis and supplemental lighting was provided with overhead metal halide 1000-Watt lamps as necessary. Plants were used for testing when they reached the first or second true leaf stage. A weighed amount, determined by the highest rate to be tested, of each test compound was placed in a 25 mL glass vial and was dissolved in 4 mL of a 97:3 v/v mixture of acetone and DMSO to obtain concentrated stock solutions. […] The concentrated stock solutions obtained were diluted with 20 mL of an aqueous mixture containing acetone, water, isopropyl alcohol, DMSO, […] crop oil concentrate, and X-77 surfactant in a 48.5:39:10:1.5:1.0:0.02 v/v ratio to obtain spray solutions containing the application rate. Compound requirements are based upon a 12 mL application volume at a rate of 187 liters per hectare (L/ha). Formulated compounds were applied to the plant material with an overhead Mandel track sprayer equipped with […] nozzles calibrated to deliver 187 L/ha over an application area of 0.64 square meters at a spray height of 18 inches (43 cm) above the average plant canopy height. Control plants were sprayed in the same manner with the solvent blank. The treated plants and control plants were placed in a greenhouse as described above and watered by subirrigation to prevent wash-off of the test compounds. After 14 d, the condition of the test plants as compared with that of the nontreated and control plants was determined visually and scored on a scale of 0 to 100 percent where 0 corresponds to no injury and 100 corresponds to complete control. In the reporting of the results, Table A: Percent Growth Reduction Conversion Table was used.

| Structure (SMILES) | pest or weed control at 140 g/ha |
| --- | --- |
| COC(=O)c1nc(-c2c(Cl)cc(C(F)(F)F)cc2SC)ccc1Cl [F122, methyl 3-chloro-6-(2-chloro-6-(methylthio)-4-(trifluoromethyl)phenyl)picolinate] | 0 to 29% |
| O=C(O)c1nc(-c2cc3c(cc2Cl)OC(F)(F)O3)c(Cl)cc1Cl [F182, 3,5-Dichloro-6-(6-chloro-2,2-difluorobenzo[d][1,3]dioxol-5-yl)picolinic acid] | 0 to 29% |

Same assay, conditions: post-emergence, 336 h, AMARE: redroot pigweed (Amaranthus retroflexus), 140 g ai/ha, 14 days after application, read-out: Visual Growth Reduction (%) 14 Days After Application, AMARE

| Structure (SMILES) | pest or weed control at 140 g/ha |
| --- | --- |
| COC(=O)c1nc(-c2c(Cl)cc(C(F)(F)F)cc2SC)ccc1Cl [F122, methyl 3-chloro-6-(2-chloro-6-(methylthio)-4-(trifluoromethyl)phenyl)picolinate] | 95 to 100% |
| O=C(O)c1nc(-c2cc3c(cc2Cl)OC(F)(F)O3)c(Cl)cc1Cl [F182, 3,5-Dichloro-6-(6-chloro-2,2-difluorobenzo[d][1,3]dioxol-5-yl)picolinic acid] | 75 to 84% |

Same assay, conditions: post-emergence, 336 h, AVEFA: wild oat (Avena fatua), 140 g ai/ha, 14 days after application, read-out: Visual Growth Reduction (%) 14 Days After Application, AVEFA

| Structure (SMILES) | pest or weed control at 140 g/ha |
| --- | --- |
| COC(=O)c1nc(-c2c(Cl)cc(C(F)(F)F)cc2SC)ccc1Cl [F122, methyl 3-chloro-6-(2-chloro-6-(methylthio)-4-(trifluoromethyl)phenyl)picolinate] | 0 to 29% |
| O=C(O)c1nc(-c2cc3c(cc2Cl)OC(F)(F)O3)c(Cl)cc1Cl [F182, 3,5-Dichloro-6-(6-chloro-2,2-difluorobenzo[d][1,3]dioxol-5-yl)picolinic acid] | 0 to 29% |

Same assay, conditions: post-emergence, 336 h, CHEAL: lambsquarters (Chenopodium album), 140 g ai/ha, 14 days after application, read-out: Visual Growth Reduction (%) 14 Days After Application, CHEAL

| Structure (SMILES) | pest or weed control at 140 g/ha |
| --- | --- |
| COC(=O)c1nc(-c2c(Cl)cc(C(F)(F)F)cc2SC)ccc1Cl [F122, methyl 3-chloro-6-(2-chloro-6-(methylthio)-4-(trifluoromethyl)phenyl)picolinate] | 60 to 74% |
| O=C(O)c1nc(-c2cc3c(cc2Cl)OC(F)(F)O3)c(Cl)cc1Cl [F182, 3,5-Dichloro-6-(6-chloro-2,2-difluorobenzo[d][1,3]dioxol-5-yl)picolinic acid] | 85 to 94% |

Same assay, conditions: post-emergence, 336 h, CIRAR: canada thistle (Cirsium arvense), 140 g ai/ha, 14 days after application, read-out: Visual Growth Reduction (%) 14 Days After Application, CIRAR

| Structure (SMILES) | pest or weed control at 140 g/ha |
| --- | --- |
| COC(=O)c1nc(-c2c(Cl)cc(C(F)(F)F)cc2SC)ccc1Cl [F122, methyl 3-chloro-6-(2-chloro-6-(methylthio)-4-(trifluoromethyl)phenyl)picolinate] | 60 to 74% |
| O=C(O)c1nc(-c2cc3c(cc2Cl)OC(F)(F)O3)c(Cl)cc1Cl [F182, 3,5-Dichloro-6-(6-chloro-2,2-difluorobenzo[d][1,3]dioxol-5-yl)picolinic acid] | 0 to 29% |

Same assay, conditions: post-emergence, 336 h, CYPES: yellow nutsedge (Cyperus esculentus), 140 g ai/ha, 14 days after application, read-out: Visual Growth Reduction (%) 14 Days After Application, CYPES

| Structure (SMILES) | pest or weed control at 140 g/ha |
| --- | --- |
| COC(=O)c1nc(-c2c(Cl)cc(C(F)(F)F)cc2SC)ccc1Cl [F122, methyl 3-chloro-6-(2-chloro-6-(methylthio)-4-(trifluoromethyl)phenyl)picolinate] | 0 to 29% |
| O=C(O)c1nc(-c2cc3c(cc2Cl)OC(F)(F)O3)c(Cl)cc1Cl [F182, 3,5-Dichloro-6-(6-chloro-2,2-difluorobenzo[d][1,3]dioxol-5-yl)picolinic acid] | 30 to 44% |

Same assay, conditions: post-emergence, 336 h, DIGSA: crabgrass (Digitaria sanguinalis), 140 g ai/ha, 14 days after application, read-out: Visual Growth Reduction (%) 14 Days After Application, DIGSA

| Structure (SMILES) | pest or weed control at 140 g/ha |
| --- | --- |
| COC(=O)c1nc(-c2c(Cl)cc(C(F)(F)F)cc2SC)ccc1Cl [F122, methyl 3-chloro-6-(2-chloro-6-(methylthio)-4-(trifluoromethyl)phenyl)picolinate] | 30 to 44% |
| O=C(O)c1nc(-c2cc3c(cc2Cl)OC(F)(F)O3)c(Cl)cc1Cl [F182, 3,5-Dichloro-6-(6-chloro-2,2-difluorobenzo[d][1,3]dioxol-5-yl)picolinic acid] | 60 to 74% |

Same assay, conditions: post-emergence, 336 h, ECHCG: barnyardgrass (Echinochloa crus-galli), 140 g ai/ha, 14 days after application, read-out: Visual Growth Reduction (%) 14 Days After Application, ECHCG

| Structure (SMILES) | pest or weed control at 140 g/ha |
| --- | --- |
| COC(=O)c1nc(-c2c(Cl)cc(C(F)(F)F)cc2SC)ccc1Cl [F122, methyl 3-chloro-6-(2-chloro-6-(methylthio)-4-(trifluoromethyl)phenyl)picolinate] | 45 to 59% |
| O=C(O)c1nc(-c2cc3c(cc2Cl)OC(F)(F)O3)c(Cl)cc1Cl [F182, 3,5-Dichloro-6-(6-chloro-2,2-difluorobenzo[d][1,3]dioxol-5-yl)picolinic acid] | 0 to 29% |

Same assay, conditions: post-emergence, 336 h, IPOHE: ivy-leaf morning glory (Ipomoea hederacea), 140 g ai/ha, 14 days after application, read-out: Visual Growth Reduction (%) 14 Days After Application, IPOHE

| Structure (SMILES) | pest or weed control at 140 g/ha |
| --- | --- |
| COC(=O)c1nc(-c2c(Cl)cc(C(F)(F)F)cc2SC)ccc1Cl [F122, methyl 3-chloro-6-(2-chloro-6-(methylthio)-4-(trifluoromethyl)phenyl)picolinate] | 95 to 100% |
| O=C(O)c1nc(-c2cc3c(cc2Cl)OC(F)(F)O3)c(Cl)cc1Cl [F182, 3,5-Dichloro-6-(6-chloro-2,2-difluorobenzo[d][1,3]dioxol-5-yl)picolinic acid] | 95 to 100% |

Same assay, conditions: post-emergence, 336 h, KCHSC: kochia (Bassia scoparia), 140 g ai/ha, 14 days after application, read-out: Visual Growth Reduction (%) 14 Days After Application, KCHSC

| Structure (SMILES) | pest or weed control at 140 g/ha |
| --- | --- |
| COC(=O)c1nc(-c2c(Cl)cc(C(F)(F)F)cc2SC)ccc1Cl [F122, methyl 3-chloro-6-(2-chloro-6-(methylthio)-4-(trifluoromethyl)phenyl)picolinate] | 75 to 84% |
| O=C(O)c1nc(-c2cc3c(cc2Cl)OC(F)(F)O3)c(Cl)cc1Cl [F182, 3,5-Dichloro-6-(6-chloro-2,2-difluorobenzo[d][1,3]dioxol-5-yl)picolinic acid] | 45 to 59% |

Same assay, conditions: post-emergence, 336 h, ORYSA: rice (Oryza sativa), 140 g ai/ha, 14 days after application, read-out: Visual Growth Reduction (%) 14 Days After Application, ORYSA

| Structure (SMILES) | pest or weed control at 140 g/ha |
| --- | --- |
| COC(=O)c1nc(-c2c(Cl)cc(C(F)(F)F)cc2SC)ccc1Cl [F122, methyl 3-chloro-6-(2-chloro-6-(methylthio)-4-(trifluoromethyl)phenyl)picolinate] | 0 to 29% |
| O=C(O)c1nc(-c2cc3c(cc2Cl)OC(F)(F)O3)c(Cl)cc1Cl [F182, 3,5-Dichloro-6-(6-chloro-2,2-difluorobenzo[d][1,3]dioxol-5-yl)picolinic acid] | 0 to 29% |

Same assay, conditions: post-emergence, 336 h, SETFA: giant foxtail (Setaria faberi), 140 g ai/ha, 14 days after application, read-out: Visual Growth Reduction (%) 14 Days After Application, SETFA

| Structure (SMILES) | pest or weed control at 140 g/ha |
| --- | --- |
| COC(=O)c1nc(-c2c(Cl)cc(C(F)(F)F)cc2SC)ccc1Cl [F122, methyl 3-chloro-6-(2-chloro-6-(methylthio)-4-(trifluoromethyl)phenyl)picolinate] | 85 to 94% |
| O=C(O)c1nc(-c2cc3c(cc2Cl)OC(F)(F)O3)c(Cl)cc1Cl [F182, 3,5-Dichloro-6-(6-chloro-2,2-difluorobenzo[d][1,3]dioxol-5-yl)picolinic acid] | 60 to 74% |

Same assay, conditions: post-emergence, 336 h, SORVU: grain sorghum (Sorghum vulgare), 140 g ai/ha, 14 days after application, read-out: Visual Growth Reduction (%) 14 Days After Application, SORVU

| Structure (SMILES) | pest or weed control at 140 g/ha |
| --- | --- |
| COC(=O)c1nc(-c2c(Cl)cc(C(F)(F)F)cc2SC)ccc1Cl [F122, methyl 3-chloro-6-(2-chloro-6-(methylthio)-4-(trifluoromethyl)phenyl)picolinate] | 75 to 84% |
| O=C(O)c1nc(-c2cc3c(cc2Cl)OC(F)(F)O3)c(Cl)cc1Cl [F182, 3,5-Dichloro-6-(6-chloro-2,2-difluorobenzo[d][1,3]dioxol-5-yl)picolinic acid] | 85 to 94% |

Same assay, conditions: post-emergence, 336 h, STEME: common chickweed (Stellaria media), 140 g ai/ha, 14 days after application, read-out: Visual Growth Reduction (%) 14 Days After Application, STEME

| Structure (SMILES) | pest or weed control at 140 g/ha |
| --- | --- |
| COC(=O)c1nc(-c2c(Cl)cc(C(F)(F)F)cc2SC)ccc1Cl [F122, methyl 3-chloro-6-(2-chloro-6-(methylthio)-4-(trifluoromethyl)phenyl)picolinate] | 0 to 29% |
| O=C(O)c1nc(-c2cc3c(cc2Cl)OC(F)(F)O3)c(Cl)cc1Cl [F182, 3,5-Dichloro-6-(6-chloro-2,2-difluorobenzo[d][1,3]dioxol-5-yl)picolinic acid] | 0 to 29% |

Same assay, conditions: post-emergence, 336 h, TRZAS: wheat, spring (Triticum aestivum), 140 g ai/ha, 14 days after application, read-out: Visual Growth Reduction (%) 14 Days After Application, TRZAS

| Structure (SMILES) | pest or weed control at 140 g/ha |
| --- | --- |
| COC(=O)c1nc(-c2c(Cl)cc(C(F)(F)F)cc2SC)ccc1Cl [F122, methyl 3-chloro-6-(2-chloro-6-(methylthio)-4-(trifluoromethyl)phenyl)picolinate] | 0 to 29% |
| O=C(O)c1nc(-c2cc3c(cc2Cl)OC(F)(F)O3)c(Cl)cc1Cl [F182, 3,5-Dichloro-6-(6-chloro-2,2-difluorobenzo[d][1,3]dioxol-5-yl)picolinic acid] | 0 to 29% |

— patent publication US20230017045A1, “PYRIDINE AND PYRIMIDINE CARBOXYLATE HERBICIDES AND METHODS OF USE THEREOF” (Dow AgroSciences LLC, priority 2017, published 2023)
